Measured values reported in US9365506B2, “Compounds and compositions as TLR2 agonists” (NOVARTIS AG, priority 2010, dated 2016).

Target: human TLR2 (Homo sapiens, UniProt O60603)
Experiment: Reporter gene assay: HEK 293 cells stably transfected with human TLR2 and NF-kB-driven luciferase reporter
Conditions: for Emax: HEK293, 7 h, read-out: Hek-TLR2 (% Eff); for EC50: Hek-TLR2 μM (EC50), HEK 293 stably transfected with human TLR2 and pNifty-Luciferase, 7 hours incubation, concentration giving 50% of maximal signal
Description: As a control assay, normal Hek293 transfected with pNifty-Luc were used. […] Bright-Glo™ Luciferase assay buffer and substrate were supplied by Promega #E263B and #E264B (assay substrate and buffer respectively). 384 well clear-bottom plates were supplied by Greiner bio-one (#789163-G) and were custom bar-coded plates.
Cells were plated at 25,000 cells/well in 384-well plates in a final volume of 50 μl of media. Cells were allowed to adhere to the plates after overnight (18 hours) culture at 37° C. and 5% CO2. Serially diluted experimental and positive control compounds were then dispensed to each well and incubated for 7 hours at 37° C. and 5% CO2. Cells stimulated with DMSO alone also serve as negative controls. After the incubation, 30 μl of the pre-mix assay buffer and substrate buffer were added to each well according to manufacturer's instructions. The luminescence signal was read on a CLIPR machine with an integration time of 20 seconds per plate.

Chain of human TLR2 (O60603 21-784): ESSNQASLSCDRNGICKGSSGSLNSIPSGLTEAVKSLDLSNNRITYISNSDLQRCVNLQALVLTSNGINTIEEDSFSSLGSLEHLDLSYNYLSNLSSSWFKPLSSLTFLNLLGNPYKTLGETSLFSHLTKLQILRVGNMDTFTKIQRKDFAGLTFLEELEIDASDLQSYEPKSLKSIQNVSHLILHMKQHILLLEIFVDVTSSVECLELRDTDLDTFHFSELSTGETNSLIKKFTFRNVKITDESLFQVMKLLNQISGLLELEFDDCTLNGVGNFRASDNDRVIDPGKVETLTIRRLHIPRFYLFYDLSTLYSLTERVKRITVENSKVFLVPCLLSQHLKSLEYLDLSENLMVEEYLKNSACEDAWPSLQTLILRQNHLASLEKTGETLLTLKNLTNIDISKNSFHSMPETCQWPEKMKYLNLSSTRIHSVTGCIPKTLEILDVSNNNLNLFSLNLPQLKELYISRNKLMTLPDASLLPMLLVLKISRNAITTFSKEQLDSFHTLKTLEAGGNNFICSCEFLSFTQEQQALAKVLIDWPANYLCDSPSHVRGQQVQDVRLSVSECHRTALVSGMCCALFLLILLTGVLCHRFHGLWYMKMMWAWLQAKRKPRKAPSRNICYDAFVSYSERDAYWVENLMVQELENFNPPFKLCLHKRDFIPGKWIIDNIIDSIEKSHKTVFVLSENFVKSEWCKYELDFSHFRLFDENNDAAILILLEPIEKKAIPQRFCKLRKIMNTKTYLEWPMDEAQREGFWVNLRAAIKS

Emax [%]	EC50 [µM]	SMILES
64	0.068	CCCCCCCCCCCC(=O)OC[C@H](CSC[C@H](N)C(=O)NC(Cc1ccccc1)c1ccccc1)OC(=O)CCCCCCCCCCC (stereo partly drawn) [Example 67, (2R)-3-(((2R)-2-amino-3-((1,2-diphenylethyl)amino)-3-oxopropyl)thio)propane-1,2-diyl didodecanoate]
3.5	> 100	CCCCCCCCCCCC(=O)NC[C@H](CSC[C@H](N)C(=O)NC1(CO)CC1)NC(=O)CCCCCCCCCCC [Example 12, N,N′—((R)-3-((R)-2-amino-3-(1-(hydroxymethyl)cyclopropylamino)-3-oxopropylthio)propane-1,2-diyl)didodecanamide]
72	14.1	CCCCCCCCCCCCCCCCOC[C@H](CSC[C@H](N)C(=O)N[C@@H](CC)C(=O)N[C@H](CCC(=O)O)C(N)=O)OCCCCCCCCCCCCCCCC [Example 10, (4R,7S,10R,14R)-10-amino-4-carbamoyl-7-ethyl-14-(hexadecyloxy)-6,9-dioxo-16-oxa-12-thia-5,8-diazadotriacontan-1-oic acid]
107	7.03	CCCCCCCCNC(=O)OC[C@H](CSC[C@H](N)C(=O)NCCOCCOCCOCCP(=O)(O)O)OC(=O)NCCCCCCCC [Example 38, (14R,18R)-14-amino-18-(octylcarbamoyloxy)-13,21-dioxo-3,6,9,20-tetraoxa-16-thia-12,22-diazatriacontylphosphonic acid]
30	38	CCCCCCCCCCCCCCCC(=O)N[C@@H](CSC[C@@H](COC(=O)CCCCCCCCCCC)OC(=O)CCCCCCCCCCC)C(=O)NCCOCCOCCOCCC(=O)O [Example 87, (15R,19R)-19-(dodecanoyloxy)-14,22-dioxo-15-palmitamido-4,7,10,21-tetraoxa-17-thia-13-azatritriacontan-1-oic acid]
113	1.22	CCCCCCCCCCCC(=O)OC[C@H](CSC[C@H](N)C(=O)NCCCCCN)OC(=O)CCCCCCCCCCC [Example 7, (R)-3-((R)-2-amino-3-(5-aminopentylamino)-3-oxopropylthio)propane-1,2-diyl didodecanoate]
101	4.4	CCCCCCCCCCCC(=O)OC[C@H](CSC[C@H](N)C(=O)NCCCCCCCCCC(=O)O)OC(=O)CCCCCCCCCCC [Example 42, 10-((R)-2-amino-3-(((R)-2,3-bis(dodecanoyloxy)propyl)thio)propanamido)decanoic acid]
73	3.04	CCCCCCCC(=O)OC[C@H](CSC[C@H](N)C(=O)NCCOCCOCCOCCP(=O)(O)O)OC(=O)CCCCCCC [Example 23, (14R,18R)-14-amino-18-(octanoyloxy)-13,21-dioxo-3,6,9,20-tetraoxa-16-thia-12-azaoctacosylphosphonic acid]
84	0.9	CCCCCCCCCCCC(=O)OC[C@H](CSC[C@H](N)C(=O)NCCOCCOCCOCCC(=O)O)OC(=O)CCCCCCCCCCC [Example 86, (15R,19R)-15-amino-19-(dodecanoyloxy)-14,22-dioxo-4,7,10,21-tetraoxa-17-thia-13-azatritriacontan-1-oic acid]
120	0.061	CCCCCCCCCCCC(=O)OC[C@H](CSC[C@H](N)C(=O)NCCOCCOS(=O)(=O)O)OC(=O)CCCCCCCCCCC [Example 91, (R)-3-(((R)-2-amino-3-oxo-3-((2-(2-(sulfooxy)ethoxy)ethyl)amino)propyl)thio)propane-1,2-diyl didodecanoate]
59	0.92	CCCCCCCCCCCCOC[C@H](CSC[C@H](N)C(=O)N[C@@H](C)C(=O)NCCOCCOCCP(=O)(O)O)OCCCCCCCCCCCC [Example 30, ((11S,14R,18R)-14-amino-18-(dodecyloxy)-11-methyl-10,13-dioxo-3,6,20-trioxa-16-thia-9,12-diazadotriacontyl)phosphonic acid]
